From PMC11450120, “One-pot synthesis, characterization and antiviral properties of new benzenesulfonamide-based spirothiazolidinones” (Molecular Diversity, 2024) come the findings set out here.

Where two headings read alike, the source gives them in different places. Where only a bound is given, the exact number is not on record here.

For series [1], the system named is influenza A/H1N1 (A/Virginia/ATCC3/2009) virus. Kind of series: Influenza virus CPE reduction assay in MDCK cells, A/H1N1. Type of series: cell-based.
The test system of series [2] is Madin-Darby canine kidney (MDCK) cells. As to conditions: for cytotoxicity at the highest concentration tested: at 100 μM.
Series [3] has as its system influenza A/H3N2 (A/HK/7/87) virus. Kind of series: Influenza virus CPE reduction assay in MDCK cells, A/H3N2. Type of series: cell-based.
Series [4] can be described thus: in vitro. The following applies: dog.
In series [5] the test system is influenza B virus (B/Ned/537/05). Put plainly: Influenza virus CPE reduction assay in MDCK cells, influenza B. Type of series: cell-based. The following applies: read-out: Antiviral EC50 Influenza B Microscopy.
Where [6] appears, read: Influenza A virus, 96 h, CPE by microscopic scoring, 4 days at 35 °C, read-out: Antiviral EC50 Influenza A/H1N1 Microscopy.
The mark [7] stands for this setting: Influenza A virus, 96 h, MTS cell viability assay, 4 days at 35 °C, read-out: Antiviral EC50 Influenza A/H1N1 MTS.
[8] abbreviates: Influenza A virus, H3N2, 96 h, CPE by microscopic scoring, 4 days at 35 °C, read-out: Antiviral EC50 Influenza A/H3N2 Microscopy.
The mark [9] stands for this setting: Influenza A virus, H3N2, 96 h, MTS cell viability assay, 4 days at 35 °C, read-out: Antiviral EC50 Influenza A/H3N2 MTS.
The mark [10] stands for this setting: Influenza B virus, 96 h, CPE by microscopic scoring, 4 days at 35 °C.
The mark [11] stands for this setting: Influenza A virus, read-out: EC50 against influenza A/H1N1 virus (range over microscopy and MTS).

The melting point is the temperature of the solid-liquid transition. `CCC1CCC2(CC1)SC(C)C(=O)N2NC(=O)c1ccc(S(N)(=O)=O)cc1OC` (stereo not drawn) [Compound 3c, 2-Methoxy-N-(8-ethyl-2-methyl-3-oxo-1-thia-4-azaspiro[4.5]decan-4-yl)-4-sulfamoylbenzamide] yielded a melting point of 270 to 272 °C. In addition, the EC50 in series [1] (setting [6]) is more than 100000 nM. Further, in series [1] (setting [7]), the EC50 was 80000 nM. For the same compound, the “Cytotoxicity MCC (minimal cytotoxic concentration)” value (from here on “Cytotoxicity MCC”) in series [2] (dog) is given as 100 µM. Also, in series [3] (setting [8]), the EC50 is more than 100000 nM. The EC50 in series [3] (setting [9]) was more than 100000 nM. Moreover, the CC50 in series [4] was more than 100 µM. The EC50 in series [5] (setting [10]) was more than 100000 nM.

`COc1cc(S(N)(=O)=O)ccc1C(=O)NN1C(=O)C(C)SC12CCC(C(C)(C)C)CC2` (stereo not drawn) [Compound 3e, 2-Methoxy-N-(2-methyl-3-oxo-8-tert-butyl-1-thia-4-azaspiro[4.5]decan-4-yl)-4-sulfamoylbenzamide]: the melting point lay within 301 to 304 °C. For the same compound, in series [1], the “activity against influenza A/H1N1 virus (in words)” value is on record as “weak activity”. In series [1] (setting [6]), the EC50 came out at 45000 nM. Moreover, the EC50 in series [1] (setting [7]) stood at 35000 nM. In addition, the EC50 in series [1] (setting [11]) was in the range of 35000 to 45000 nM. Also, in series [2], the “cytotoxicity at the highest concentration tested” value is “no cytotoxicity”. Also, the “Cytotoxicity MCC” value in series [2] (dog) is on record as more than 100 µM. Further, the EC50 in series [3] (setting [8]) is more than 100000 nM. For the same compound, in series [3] (setting [9]), the EC50 came out at 68000 nM. Besides, the CC50 in series [4] was more than 100 µM. Moreover, the EC50 in series [5] (setting [10]) was more than 100000 nM.

For `NC(=O)c1ncn([C@@H]2O[C@H](CO)[C@@H](O)[C@H]2O)n1` [Ribavirin, reference compound], the EC50 amounted to 45000 nM in series [1] (setting [6]); 25000 nM in series [1] (setting [7]); 40000 nM in series [3] (setting [8]); 26000 nM in series [3] (setting [9]); 10000 nM in series [5] (setting [10]). Further, in series [4], the CC50 is more than 100 µM.

With `COc1cc(S(N)(=O)=O)ccc1C(=O)NN1C(=O)C(C)SC12CCC(C#N)(c1ccccc1)CC2` (stereo not drawn) [Compound 3i, 2-Methoxy-N-(8-cyano-2-methyl-3-oxo-8-phenyl-1-thia-4-azaspiro[4.5]decan-4-yl)-4-sulfamoylbenzamide], the melting point fell in the range of 265 to 270 °C. Moreover, the EC50 in series [1] (setting [6]) was more than 100000 nM. Also, the EC50 in series [1] (setting [7]) amounted to 74000 nM. For the same compound, the “Cytotoxicity MCC” value in series [2] (dog) is more than 100 µM. Further, the EC50 in series [3] (setting [8]) is more than 100000 nM. Besides, the EC50 in series [3] (setting [9]) is more than 100000 nM. This compound displayed a CC50 in series [4] of more than 100 µM. For the same compound, the EC50 in series [5] (setting [10]) was more than 100000 nM.

The compound `COc1cc(S(N)(=O)=O)ccc1C(=O)NN1C(=O)C(C)SC12CCC(C)CC2` (stereo not drawn) [Compound 3b, 2-Methoxy-N-(2,8-dimethyl-3-oxo-1-thia-4-azaspiro[4.5]decan-4-yl)-4-sulfamoylbenzamide] registered a melting point of 258 to 261 °C. Further, the EC50 in series [1] (setting [6]) is more than 100000 nM. For the same compound, in series [1] (setting [7]), the EC50 was more than 100000 nM. In addition, the “Cytotoxicity MCC” value in series [2] (dog) is recorded as more than 100 µM. The EC50 in series [3] (setting [8]) was more than 100000 nM. Moreover, in series [3] (setting [9]), the EC50 was more than 100000 nM. This compound also registered a CC50 in series [4] of more than 100 µM. Besides, in series [5] (setting [10]), the EC50 is more than 100000 nM.

For the compound `CCC(C)(C)C1CCC2(CC1)SC(C)C(=O)N2NC(=O)c1ccc(S(N)(=O)=O)cc1OC` (stereo not drawn) [Compound 3f, 2-Methoxy-N-(2-methyl-3-oxo-8-tert-pentyl-1-thia-4-azaspiro[4.5]decan-4-yl)-4-sulfamoylbenzamide], the melting point is 290 to 295 °C. The EC50 in series [1] (setting [6]) was more than 100000 nM. In series [1] (setting [7]), the EC50 is more than 100000 nM. The “Cytotoxicity MCC” value in series [2] (dog) is reported as more than 100 µM. In addition, the EC50 in series [3] (setting [8]) is more than 100000 nM. The EC50 in series [3] (setting [9]) was more than 100000 nM. The compound also had a CC50 in series [4] of more than 100 µM. The EC50 in series [5] (setting [10]) was more than 100000 nM.

On to `CC(=O)N[C@H]1[C@H]([C@H](O)[C@H](O)CO)OC(C(=O)O)=C[C@@H]1N=C(N)N` [Zanamivir, reference compound], for which the EC50 was more than 100000 nM in series [1] (setting [6]); more than 100000 nM in series [1] (setting [7]); less than 800 nM in series [3] (setting [8]); less than 800 nM in series [3] (setting [9]); less than 800 nM in series [5] (setting [10]). Besides, the “Cytotoxicity MCC” value in series [2] (dog) is more than 100 µM. This compound also returned a CC50 in series [4] of more than 100 µM.

Turning to `COc1cc(S(N)(=O)=O)ccc1C(=O)NN1C(=O)C(C)SC12CCC(NC(C)=O)CC2` (stereo not drawn) [Compound 3j, 2-Methoxy-N-(8-acetamido-2-methyl-3-oxo-1-thia-4-azaspiro[4.5]decan-4-yl)-4-sulfamoylbenzamide], the EC50 in series [1] (setting [6]), in series [1] (setting [7]), in series [3] (setting [8]), in series [3] (setting [9]) and in series [5] (setting [10]) was more than 100000 nM throughout. The “Cytotoxicity MCC” value in series [2] (dog) is recorded as more than 100 µM. Further, in series [4], the CC50 is more than 100 µM.

`COc1cc(S(N)(=O)=O)ccc1C(=O)NN1C(=O)C(C)SC12CCC(C(F)(F)F)CC2` (stereo not drawn) [3 g, 2-Methoxy-N-(2-methyl-3-oxo-1-thia-8-trifluoromethyl-4-azaspiro[4.5]decan-4-yl)-4-sulfamoylbenzamide] returned a melting point of 210 to 214 °C. The EC50 in series [1] (setting [6]) is more than 100000 nM. Besides, in series [1] (setting [7]), the EC50 was more than 100000 nM. Besides, in series [2] (dog), the “Cytotoxicity MCC” value amounted to 100 µM. Moreover, in series [3] (setting [8]), the EC50 is more than 100000 nM. Also, the EC50 in series [3] (setting [9]) was more than 100000 nM. In addition, in series [4], the CC50 is more than 100 µM. Also, the EC50 in series [5] (setting [10]) is more than 100000 nM.

As to `CCCC1CCC2(CC1)SC(C)C(=O)N2NC(=O)c1ccc(S(N)(=O)=O)cc1OC` (stereo not drawn) [Compound 3d, 2-Methoxy-N-(2-methyl-3-oxo-8-propyl-1-thia-4-azaspiro[4.5]decan-4-yl)-4-sulfamoylbenzamide], the melting point was 274 to 276 °C. For the same compound, in series [1], the “activity against influenza A/H1N1 virus (in words)” value is listed as “weak activity”. The EC50 in series [1] (setting [6]) came to 45000 nM. The EC50 in series [1] (setting [7]) is 39000 nM. In series [1] (setting [11]), the EC50 is 35000 to 45000 nM. For the same compound, the “cytotoxicity at the highest concentration tested” value in series [2] is given as “no cytotoxicity”. In addition, the “Cytotoxicity MCC” value in series [2] (dog) was found to be 100 µM. Besides, the EC50 in series [3] (setting [8]) is more than 100000 nM. Further, in series [3] (setting [9]), the EC50 was more than 100000 nM. Moreover, the CC50 in series [4] is more than 100 µM. Moreover, in series [5] (setting [10]), the EC50 was more than 100000 nM.

With `COc1cc(S(N)(=O)=O)ccc1C(=O)NN1C(=O)C(C)SC12CCC(c1ccccc1)CC2` (stereo not drawn) [3 h, 2-Methoxy-N-(2-methyl-3-oxo-8-phenyl-1-thia-4-azaspiro[4.5]decan-4-yl)-4-sulfamoylbenzamide], the melting point fell in the range of 290 to 292 °C. The EC50 in series [1] (setting [6]) was more than 100000 nM. Also, in series [1] (setting [7]), the EC50 is more than 100000 nM. Besides, in series [2] (dog), the “Cytotoxicity MCC” value is listed as 100 µM. Besides, the EC50 in series [3] (setting [8]) is more than 100000 nM. Besides, in series [3] (setting [9]), the EC50 is more than 100000 nM. Besides, the CC50 in series [4] was more than 100 µM. In addition, the EC50 in series [5] (setting [10]) was more than 100000 nM.

As to `O=C1c2c(O)c(=O)ccn2N([C@@H]2c3ccccc3SCc3c2ccc(F)c3F)[C@@H]2COCCN12` [BXA, baloxavir acid, reference compound], the EC50 in series [1] (MTS assay, BXA concentration unit nM, read-out: Antiviral EC50 Influenza A/H1N1 MTS) turned out to be 1.5 nM; in series [1] (microscopic scoring, BXA concentration unit nM, read-out: Antiviral EC50 Influenza A/H1N1 Microscopy) it was 1.8 nM; in series [3] (MTS assay, BXA concentration unit nM, read-out: Antiviral EC50 Influenza A/H3N2 MTS) it was 1.7 nM; in series [3] (microscopic scoring, BXA concentration unit nM, read-out: Antiviral EC50 Influenza A/H3N2 Microscopy), 2 nM; in series [5] (microscopic scoring, BXA concentration unit nM), 8.3 nM. The compound also came in with a CC50 in series [2] of more than 0.02 µM. Further, the “Cytotoxicity MCC” value in series [2] is more than 0.02 µM.

`COc1cc(S(N)(=O)=O)ccc1C(=O)NN1C(=O)C(C)SC12CCCC(C)C2` (stereo not drawn) [Compound 3a, 2-Methoxy-N-(2,7-dimethyl-3-oxo-1-thia-4-azaspiro[4.5]decan-4-yl)-4-sulfamoylbenzamide] displayed a melting point of 261 to 264 °C. Further, in series [1] (setting [6]), the EC50 is more than 100000 nM. Besides, the EC50 in series [1] (setting [7]) was 76000 nM. In addition, the “Cytotoxicity MCC” value in series [2] (dog) is more than 100 µM. Besides, the EC50 in series [3] (setting [8]) was more than 100000 nM. In series [3] (setting [9]), the EC50 is 64000 nM. Further, in series [4], the CC50 was more than 100 µM. For the same compound, in series [5] (setting [10]), the EC50 is more than 100000 nM.
